Data published in patent US8071654B2, “Inhibitors of thromboxane formation and action” (priority 2000, dated 2011).

How the values were obtained:
[1] = molecular target: T1, 12-LOX (Homo sapiens, UniProt P18054); test: 12-HETE formed in collagen-treated washed human platelets (12-LOX), HPLC; assay type: cell-based; settings: for 12-LOX enzyme activity (% of control values, mean ± SD): n = 3
T1 construct: endogenous in cells; host or cells: washed human platelets
T1 sequence (P18054 1-663): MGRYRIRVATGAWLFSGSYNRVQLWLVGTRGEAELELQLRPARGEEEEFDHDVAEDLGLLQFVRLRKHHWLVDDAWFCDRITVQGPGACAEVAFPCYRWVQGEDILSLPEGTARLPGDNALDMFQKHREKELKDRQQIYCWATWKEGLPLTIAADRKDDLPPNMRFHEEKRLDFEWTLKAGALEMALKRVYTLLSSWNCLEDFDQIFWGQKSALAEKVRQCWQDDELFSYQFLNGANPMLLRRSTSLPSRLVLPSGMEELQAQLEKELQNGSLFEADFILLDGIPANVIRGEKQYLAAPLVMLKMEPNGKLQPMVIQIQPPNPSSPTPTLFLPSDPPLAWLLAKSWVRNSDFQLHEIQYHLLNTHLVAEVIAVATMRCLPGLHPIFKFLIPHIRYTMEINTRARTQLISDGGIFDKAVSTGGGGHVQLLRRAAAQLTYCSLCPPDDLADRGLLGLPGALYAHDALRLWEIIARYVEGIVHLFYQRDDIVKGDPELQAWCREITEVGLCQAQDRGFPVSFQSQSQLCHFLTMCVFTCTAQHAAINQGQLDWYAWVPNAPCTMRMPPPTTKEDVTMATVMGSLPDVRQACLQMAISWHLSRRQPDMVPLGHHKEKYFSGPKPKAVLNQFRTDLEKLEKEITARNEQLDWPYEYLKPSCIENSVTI
Protocol: 0.5 ml of platelet suspension was added to siliconized glass tubes (four at a time) and heated with magnetic stirring to 37° for 1 min in a platelet aggregometer (PAP-4C). Either vehicle alone (ethanol, 1 μl) or hepoxilin analog was then added, followed two min later by agonist (collagen: 2 μg; PGH2: 100 ng/0.5 ml; U46619: 10 ng/0.5 ml or I-BOP: 2 ng/0.5 ml). The response was recorded for the next 5 min. In experiments where analysis of TxB2 and HHT were to be made by HPLC, the platelet suspension at the end of the experiment was diluted with ethyl acetate, 100 ng of prostaglandin B1 was added as internal standard, and the mixture was acidified to pH 3 with 0.1 N HCl. After centrifugation, the organic layer was separated, washed twice with water to neutrality, and evaporated to dryness. Half of the sample was taken and was resuspended in 1 ml ethyl acetate containing 20 μg ADAM reagent, and was left in the dark for 2 h (38). The solvent was then evaporated and the residue was acetylated with a solution of pyridine/acetic anhydride (3/1, v/v) during 16 h at 23°. The reagents were evaporated to dryness and the residue was resuspended in acetonitrile/water for HPLC analysis. In experiments where the conversion of tritiated PGH2 was to be monitored, the procedure described above was repeated with tritiated PGH2 instead of unlabeled PGH2. After extraction of the sample as described above, the radiolabeled compounds were analyzed by TLC. Dose response curves for varying amounts of test compounds were generated and the data expressed as % inhibition of collagen-induced platelet aggregation. Each point was investigated 5 times and statistical analysis of the data was carried out using Macintosh Statview statistical software.
Measurement of eicosanoids formed by platelets during treatment with collagen or the TP receptor agonists in the presence or absence of PBT-3 was carried out by HPLC after appropriate derivatization with a fluorescent tag (anthracyl diazomethane—ADAM) which forms a fluorescent ester (44). The method was adapted to measure the following compounds: TxB2, HHT, 12-HETE and M. The platelet suspension at the end of the experiment was mixed with ethyl acetate, 100 ng of prostaglandin B1 was added as internal standard and the mixture was acidified to pH 3 with 0.1 N HCl. After centrifugation, the organic layer was separated, washed twice with water to neutrality, and evaporated to dryness. The residue was resuspended in ethyl acetate and half of the sample was taken. It was diluted to 0.2 ml with ethyl acetate containing 20 μg ADAM reagent, and was left in the dark for 2 h. The solvent was then evaporated and the residue was acetylated with a solution of pyridine/acetic anhydride (3/1, v/v) for 16 h at 23°. The reagents were evaporated to dryness and the residue was resuspended in acetonitrile/water for HPLC analysis. Dose response curves for varying amounts of test compounds were generated and the data were expressed as % inhibition of agonist-induced platelet aggregation. Each point was investigated 3 times and statistical analysis of the data was carried out using Macintosh Statview statistical software.
Analysis of the anthryl (ADAM)-acetate derivative of TxB2, HHT and 12 HETE in the extracted platelet samples was carried out on a Hewlett Packard (1100 series) HPLC to which was attached a Shimadzu fluorescent detector (RF-10AXL). The detector was operated with excitation at 364 nm, emission at 411 nm. […]

[2] = molecular target: T2, TP receptor (Homo sapiens, UniProt P21731); test: platelet aggregation evoked by I-BOP; assay type: cell-based; settings: I-BOP 2 ng/0.5 ml; read-out: IC50 for inhibition of aggregation evoked by I-BOP
T2 construct: endogenous in cells; host or cells: washed human platelets
T2 sequence (P21731 1-343): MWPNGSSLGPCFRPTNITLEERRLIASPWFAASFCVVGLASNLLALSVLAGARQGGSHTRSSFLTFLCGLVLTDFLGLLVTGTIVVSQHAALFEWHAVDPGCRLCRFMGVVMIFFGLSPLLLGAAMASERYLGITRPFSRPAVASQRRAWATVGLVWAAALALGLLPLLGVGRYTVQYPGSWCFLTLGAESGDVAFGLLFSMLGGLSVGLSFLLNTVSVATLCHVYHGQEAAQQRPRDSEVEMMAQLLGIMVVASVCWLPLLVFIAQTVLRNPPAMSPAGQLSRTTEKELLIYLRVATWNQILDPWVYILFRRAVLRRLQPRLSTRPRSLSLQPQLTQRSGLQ
Protocol: Venous blood was obtained from healthy human subjects who had not taken NSAID's for at least two weeks. Blood was drawn into plastic syringes containing ACD. It was immediately centrifuged at 23° at 200×g for 15 min. The platelet rich plasma was transferred into fresh plastic tubes and centrifuged at 400×g for 5 min. The supernatant was discarded and the platelet sediment was resuspended in fresh medium containing NaCl (137 mM), KCl (1 mM), NaH2PO4, glucose (5.5 mM), HEPES (20 mM) and CaCl2 (1 mM) and allowed to stand at room temperature for 30 min. A platelet count was made, which determined the volume of platelet suspension needed to make up 350×10^6 cells for each measurement. The aliquot was diluted with medium to make 0.5 ml/assay/cuvette. […]
0.5 ml of platelet suspension was added to siliconized glass tubes (four at a time) and heated with magnetic stirring to 37° for 1 min in a platelet aggregometer (PAP-4C). […] The response was recorded for the next 5 min. […] In experiments where the conversion of tritiated PGH2 was to be monitored, the procedure described above was repeated with tritiated PGH2 instead of unlabeled PGH2. After extraction of the sample as described above, the radiolabeled compounds were analyzed by TLC. Dose response curves for varying amounts of test compounds were generated and the data expressed as % inhibition of collagen-induced platelet aggregation. […]

Question: With `CCCCC/C=C\CC1CC1[C@@H](O)/C=C\C/C=C\CCCC(=O)OC` (stereo partly drawn) [PBT-3, 10(S)-hydroxy-11,12-cyclopropyl-eicosa-5Z,8Z,14Z-trienoic acid methyl ester] as the molecule, how does the “12-LOX enzyme activity (% of control values, mean ± SD)” value ([1]; PBT-3 0.05 μM) read?
Answer: Its value is 79.4 ± 7.6 % of control.

Question: What about the “12-LOX enzyme activity (% of control values, mean ± SD)” value ([1]; PBT-3 0.30 μM) of the same molecule?
Answer: The value was 85.2 ± 7.4^NS % of control.

Question: What about the “12-LOX enzyme activity (% of control values, mean ± SD)” value ([1]; PBT-3 0.60 μM) of the same molecule?
Answer: The value was 73.0 ± 4.9 % of control.

Question: What about the “12-LOX enzyme activity (% of control values, mean ± SD)” value ([1]; PBT-3 3.00 μM) of the same molecule?
Answer: The value was 102.5 ± 5.7^NS % of control.

Question: What about the “inhibition of 12-LOX, in words” value ([1]; relatively large amounts of PBT-3, about 3-4 log doses greater than required to inhibit the TP receptor) of the same molecule?
Answer: The value was “Neither COX-1, COX-2,12-LOX nor Plase A2 was inhibited”.

Question: And the IC50 [2]?
Answer: Its IC50 is 60 nM.
